Measured values as given in patent publication US10759766B2, “Certain chemical entities, compositions, and methods” (NeuPharma, Inc., priority 2011, dated 2020).
pIC50: −log10 of the molar value.

How the values were obtained:
[1] = target: BRAF (Homo sapiens (Human), UniProt P15056); assay: Z′-LYTE kinase inhibition assay (Invitrogen), BRAF; type: biochemical; settings: 1 μM compound, Z′-LYTE method; for inhibition at 1 µM: read-out: % inhibition at 1 μM against BRAF
Method: Inhibitory activities Inhibitory activities of compounds against BRAF, and BRAF V600E were measured by Invitrogen using Z′-LYTE® Method as briefly described in the following. 4× Test compounds are dissolved in 1% DMSO. […] ATP solutions are diluted to a 4×ATP working concentration in Kinase Buffer (50 mM HEPES pH 7.5, 0.01% BRIJ-35, 10 mM MgCl2, 1 mM EGTA). Reaction started by 30-second shaking of mixture consisting of 2.5 μL 4× test compound, […] and 2.5 μL 4×ATP Solution on Bar-coded Corning, low volume NBS, black 384-well plate (Corning Cat. #3676). Then the mixture was incubated for 60-minute at room temperature for the kinase reaction, followed by addition of 5 μL of a 1:1024 dilution of development reagent A and 30-second plate shake. The mixture was then incubated for another 60-minute at room temperature for development reaction. Fluorescence was read by plate reader. IC50 was calculated by plotting the concentration of compound vs the percentage of inhibition in treated wells using GraphPad Prism 5.

[2] = target: BRAF V600E (Homo sapiens (Human), UniProt P15056, V600E); assay: Z′-LYTE kinase inhibition assay (Invitrogen), BRAF V600E; type: biochemical; settings: Z′-LYTE method; for inhibition at 1 µM: read-out: % inhibition at 1 μM against BRAF V600E; for pIC50: read-out: IC50 against BRAF V600E
Chain of BRAF V600E (P15056 whole entry V600E): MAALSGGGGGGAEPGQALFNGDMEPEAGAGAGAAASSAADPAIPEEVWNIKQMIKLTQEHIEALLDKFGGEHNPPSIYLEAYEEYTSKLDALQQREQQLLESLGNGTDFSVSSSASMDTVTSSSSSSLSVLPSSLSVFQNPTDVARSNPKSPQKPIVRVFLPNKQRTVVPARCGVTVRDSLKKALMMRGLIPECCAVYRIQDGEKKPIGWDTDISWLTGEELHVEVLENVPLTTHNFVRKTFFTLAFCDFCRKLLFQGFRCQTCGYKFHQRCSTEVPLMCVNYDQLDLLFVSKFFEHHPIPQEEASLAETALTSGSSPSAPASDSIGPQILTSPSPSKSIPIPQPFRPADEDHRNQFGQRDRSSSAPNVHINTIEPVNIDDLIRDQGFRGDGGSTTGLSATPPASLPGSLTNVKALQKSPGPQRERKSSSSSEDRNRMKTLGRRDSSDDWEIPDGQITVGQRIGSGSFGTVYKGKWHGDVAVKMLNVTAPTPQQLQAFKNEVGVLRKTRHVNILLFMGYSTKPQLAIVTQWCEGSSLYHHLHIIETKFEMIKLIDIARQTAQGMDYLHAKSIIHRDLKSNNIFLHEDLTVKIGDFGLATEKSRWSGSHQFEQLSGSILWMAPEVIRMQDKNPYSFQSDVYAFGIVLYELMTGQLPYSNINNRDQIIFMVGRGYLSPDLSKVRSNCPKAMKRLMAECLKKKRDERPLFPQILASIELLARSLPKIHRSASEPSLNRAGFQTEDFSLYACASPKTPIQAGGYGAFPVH
Summary of the method: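 FRET-based Z′-LYTE peptide phosphorylation format in 50 mM HEPES pH 7.5, 0.01% BRIJ-35, 10 mM MgCl2, 1 mM EGTA with ATP. Kinase reaction 60 min at room temperature, then protease development step 60 min at room temperature before fluorescence read. IC50 from compound concentration versus percent inhibition.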

[3] = target: KDR (VEGFR2) (Homo sapiens (Human), UniProt P35968); assay: Z′-LYTE kinase inhibition assay (Invitrogen), KDR; type: biochemical; settings: Z′-LYTE method; for inhibition at 1 µM: read-out: % inhibition at 1 μM against KDR; for pIC50: read-out: IC50 against KDR
Chain of KDR (VEGFR2) (P35968 20-1356): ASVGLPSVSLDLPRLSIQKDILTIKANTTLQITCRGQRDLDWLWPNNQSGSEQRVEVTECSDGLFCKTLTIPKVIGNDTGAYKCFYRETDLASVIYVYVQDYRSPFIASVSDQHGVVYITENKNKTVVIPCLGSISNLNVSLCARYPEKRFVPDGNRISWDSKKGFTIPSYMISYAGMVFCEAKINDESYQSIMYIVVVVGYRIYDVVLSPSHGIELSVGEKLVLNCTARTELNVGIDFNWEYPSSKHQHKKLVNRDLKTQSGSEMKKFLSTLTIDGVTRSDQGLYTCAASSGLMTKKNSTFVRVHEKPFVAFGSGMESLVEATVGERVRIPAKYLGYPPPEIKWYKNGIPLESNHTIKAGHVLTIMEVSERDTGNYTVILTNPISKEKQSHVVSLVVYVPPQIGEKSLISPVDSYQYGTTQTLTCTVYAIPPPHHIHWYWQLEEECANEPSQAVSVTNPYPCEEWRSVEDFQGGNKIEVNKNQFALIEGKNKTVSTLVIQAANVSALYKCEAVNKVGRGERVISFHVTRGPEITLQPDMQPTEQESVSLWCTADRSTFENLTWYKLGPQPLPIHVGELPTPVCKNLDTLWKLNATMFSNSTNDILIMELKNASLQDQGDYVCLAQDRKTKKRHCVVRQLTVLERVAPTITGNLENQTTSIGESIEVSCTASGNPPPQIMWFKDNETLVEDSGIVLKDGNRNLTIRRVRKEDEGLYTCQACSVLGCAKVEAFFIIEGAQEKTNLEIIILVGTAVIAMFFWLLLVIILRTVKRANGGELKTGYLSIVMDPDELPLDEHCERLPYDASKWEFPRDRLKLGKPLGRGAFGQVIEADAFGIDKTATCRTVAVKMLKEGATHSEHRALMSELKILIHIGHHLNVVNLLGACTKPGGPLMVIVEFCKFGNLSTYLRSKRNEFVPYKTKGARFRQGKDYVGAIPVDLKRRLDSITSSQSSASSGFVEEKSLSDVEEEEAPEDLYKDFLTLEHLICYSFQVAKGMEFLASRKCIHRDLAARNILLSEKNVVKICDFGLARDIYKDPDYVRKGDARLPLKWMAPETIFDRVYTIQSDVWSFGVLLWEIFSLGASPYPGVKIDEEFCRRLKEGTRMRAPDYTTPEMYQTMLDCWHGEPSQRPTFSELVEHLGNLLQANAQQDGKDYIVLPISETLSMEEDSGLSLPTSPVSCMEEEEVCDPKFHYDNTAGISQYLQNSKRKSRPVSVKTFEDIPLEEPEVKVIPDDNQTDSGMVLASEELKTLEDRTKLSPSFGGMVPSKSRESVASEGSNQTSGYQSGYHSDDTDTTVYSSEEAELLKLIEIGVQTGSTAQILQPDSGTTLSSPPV
Summary of the method: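 Z′-LYTE FRET assay: 10 μL reactions with 0.5–11.7 ng KDR and 2 μM Tyr 01 peptide in 50 mM HEPES pH 7.5, 10 mM MgCl2, 1 mM EGTA, 0.01% BRIJ-35, 1 h at room temperature. Development Reagent B (1:256) added for 60 min, fluorescence read; IC50 from concentration–inhibition curves.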

[4] = system: A375 cells; assay: Inhibition of cancer cell growth, MTT assay, A375; type: cell-based
Summary of the method: (§1)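 IC50 derived from percent growth inhibition versus concentration, tested in triplicate. Growth inhibition came from MTT read at 570 nm after 72 h drug exposure, relative to viable cells at dosing. Cells (about 4000/well, RPMI 1640 + 10% FBS) adhered 24 h before treatment; final DMSO 1%.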

[5] = system: A549 cells; assay: Inhibition of cancer cell growth, MTT assay, A549; type: cell-based
Summary of the method: as §1

[6] = Homo sapiens, A-375, 72 h exposure
[7] = Homo sapiens, A549, 72 h exposure

Chain of BRAF (P15056 whole entry): as the sequence (P15056 whole entry V600E) above, with E600V counted along it

% inhibition at 1 μM against BRAF [1]	% inhibition at 1 μM against BRAF V600E ([2]; 1 μM compound)	% inhibition at 1 μM against KDR ([3]; 1 μM compound)	pIC50 ([4]; 72 h exposure)	pIC50 ([5]; 72 h exposure)	inhibition at 1 µM [1]	inhibition at 1 µM ([2]; 1 μM compound)	inhibition at 1 µM ([3]; 1 μM compound)	pIC50 [4, 6]	pIC50 [5, 7]	pIC50 [2]	pIC50 [3]	Molecule
+ (less than 70% inhibition)	++ (between 70% and 89% inhibition)	+ (less than 70% inhibition)	< 5.30	< 5.30	–	–	–	–	–	–	–	1-(fluorophenyl)-3-(2,4,5-trifluoro-3-(quinoxaline-6-carbonyl)phenyl)urea [Compound C005]
–	–	–	–	–	70 to 89%	> 89%	< 70%	5.30 to 6.00	> 5.70	–	–	O=C(Nc1cccc(F)c1)Nc1cccc(C(=O)c2ccc3nccnc3c2)c1 [Compound C001, 1-(3-fluorophenyl)-3-(3-(quinoxaline-6-carbonyl)phenyl)urea]
–	–	–	–	–	70 to 89%	> 89%	< 70%	5.30 to 6.00	> 5.70	–	–	O=C(Nc1cccc(C(=O)c2ccc3nccnc3c2)c1)Nc1cc(C(F)(F)F)ccc1Cl [Compound C002, 1-(2-chloro-5-(trifluoromethyl)phenyl)-3-(3-(quinoxaline-6-carbonyl)phenyl)urea]
–	–	–	–	–	70 to 89%	> 89%	70 to 89%	> 6.00	5.30 to 5.70	–	–	O=C(Nc1cccc(Cl)c1)Nc1cccc(C(=O)c2ccc3nccnc3c2)c1 [Compound C003, 1-(3-chlorophenyl)-3-(3-(quinoxaline-6-carbonyl)phenyl)urea]
–	–	–	–	–	70 to 89%	> 89%	70 to 89%	5.30 to 6.00	> 5.70	> 7.00	> 7.00	O=C(Nc1cccc(C(=O)c2ccc3nccnc3c2)c1)Nc1ccc(Cl)c(C(F)(F)F)c1 [Compound C004, 1-(4-chloro-3-(trifluoromethyl)phenyl)-3-(3-(quinoxaline-6-carbonyl)phenyl)urea]
–	–	–	–	–	< 70%	70 to 89%	< 70%	< 5.30	< 5.30	–	–	O=C(Nc1cccc(C(F)(F)F)c1)Nc1cc(F)c(F)c(C(=O)c2ccc3nccnc3c2)c1F [Compound C006, 1-(2,4,5-trifluoro-3-(quinoxaline-6-carbonyl)phenyl)-3-(3-(trifluoromethyl)phenyl)urea]
–	–	–	–	–	< 70%	< 70%	< 70%	5.30 to 6.00	5.30 to 5.70	–	–	O=C(Nc1ccc(Cl)c(C(F)(F)F)c1)Nc1cc(F)c(F)c(C(=O)c2ccc3nccnc3c2)c1F [Compound C007, 1-(4-chloro-3-(trifluoromethyl)phenyl)-3-(2,4,5-trifluoro-3-(quinoxaline-6-carbonyl)phenyl)urea]
–	–	–	–	–	< 70%	< 70%	< 70%	< 5.30	5.30 to 5.70	–	–	O=C(Nc1ccc(Cl)c(C(F)(F)F)c1)Nc1ccc(F)c(C(=O)c2ccc3nccnc3c2)c1Cl [Compound C008, 1-(4-chloro-3-(trifluoromethyl)phenyl)-3-(2-chloro-4-fluoro-3-(quinoxaline-6-carbonyl)phenyl)urea]
–	–	–	–	–	70 to 89%	70 to 89%	> 89%	< 5.30	5.30 to 5.70	> 7.00	> 7.00	O=C(Nc1cccc(C(=O)c2ccc3nccnc3c2)c1)Nc1cccc(C(F)(F)F)c1 [Compound C009, 1-(3-(quinoxaline-6-carbonyl)phenyl)-3-(3-(trifluoromethyl)phenyl)urea]
–	–	–	–	–	< 70%	> 89%	70 to 89%	> 6.00	> 5.70	> 7.00	> 7.00	O=C(Nc1cccc(C(F)(F)F)c1)Nc1ccc(F)c(C(=O)c2ccc3nccnc3c2)c1 [Compound C014, 1-(4-fluoro-3-(quinoxaline-6-carbonyl)phenyl)-3-(3-(trifluoromethyl)phenyl)urea]
–	–	–	–	–	< 70%	> 89%	> 89%	> 6.00	> 5.70	> 7.00	> 7.00	O=C(Nc1ccc(F)c(C(=O)c2ccc3nccnc3c2)c1)Nc1ccc(Cl)c(C(F)(F)F)c1 [Compound C015, 1-(4-chloro-3-(trifluoromethyl)phenyl)-3-(4-fluoro-3-(quinoxaline-6-carbonyl)phenyl)urea]
–	–	–	–	–	70 to 89%	> 89%	> 89%	> 6.00	> 5.70	> 7.00	> 7.00	O=C(Nc1cccc(C(=O)c2ccc3ncc(N4CCOCC4)nc3c2)c1)Nc1cccc(C(F)(F)F)c1 [Compound C017, 1-(3-(3-morpholinoquinoxaline-6-carbonyl)phenyl)-3-(3-(trifluoromethyl)phenyl)urea]
–	–	–	–	–	70 to 89%	> 89%	> 89%	> 6.00	> 5.70	> 7.00	> 7.00	O=C(Nc1cccc(C(=O)c2ccc3ncc(N4CCOCC4)nc3c2)c1)Nc1ccc(Cl)c(C(F)(F)F)c1 [Compound C018, 1-(4-chloro-3-(trifluoromethyl)phenyl)-3-(3-(3-morpholinoquinoxaline-6-carbonyl)phenyl)urea]
–	–	–	–	–	70 to 89%	> 89%	> 89%	5.30 to 6.00	< 5.30	–	–	O=C(Nc1cccc(C(=O)c2ccc3ncc(N4CCCC4)nc3c2)c1)Nc1cccc(C(F)(F)F)c1 [Compound C020, 1-(3-(3-(pyrrolidin-1-yl)quinoxaline-6-carbonyl)phenyl)-3-(3-(trifluoromethyl)phenyl)urea]
–	–	–	–	–	70 to 89%	> 89%	> 89%	5.30 to 6.00	< 5.30	> 7.00	> 7.00	O=C(Nc1cccc(C(=O)c2ccc3ncc(-c4cccnc4)nc3c2)c1)Nc1ccc(Cl)c(C(F)(F)F)c1 [Compound C022, 1-(4-chloro-3-(trifluoromethyl)phenyl)-3-(3-(3-(pyridin-3-yl)quinoxaline-6-carbonyl)phenyl)urea]
–	–	–	–	–	< 70%	70 to 89%	70 to 89%	> 6.00	> 5.70	–	–	O=C(Nc1cc(F)c(F)c(C(=O)c2ccc3nccnc3c2)c1)Nc1ccc(Cl)c(C(F)(F)F)c1 [Compound C023, 1-(4-chloro-3-(trifluoromethyl)phenyl)-3-(3,4-difluoro-5-(quinoxaline-6-carbonyl)phenyl)urea]
–	–	–	–	–	< 70%	70 to 89%	70 to 89%	5.30 to 6.00	5.30 to 5.70	–	–	O=C(Nc1cc(F)cc(C(=O)c2ccc3nccnc3c2)c1)Nc1ccc(Cl)c(C(F)(F)F)c1 [Compound C026, 1-(4-chloro-3-(trifluoromethyl)phenyl)-3-(3-fluoro-5-(quinoxaline-6-carbonyl)phenyl)urea]
–	–	–	–	–	> 89%	> 89%	> 89%	–	5.30 to 5.70	–	> 7.00	O=C(Nc1ccc(F)cc1)Nc1ccc(F)c(C(=O)c2ccc3ncc(N4CCNCC4)nc3c2)c1 [Compound C100, 1-(4-fluoro-3-(3-(piperazin-1-yl)quinoxaline-6-carbonyl)phenyl)-3-(4-fluorophenyl)urea]
